Article PMC12150604, “Exploring structure–activity relationships of pyrrolyl diketo acid derivatives as non-nucleoside inhibitors of terminal deoxynucleotidyl transferase enzyme” (Journal of Enzyme Inhibition and Medicinal Chemistry, 2025)
Where two headings read alike, the source gives them in different places.

Assays:
human DNA polymerase λ [1] = molecular target: T1, human DNA polymerase λ (Homo sapiens, UniProt Q9UGP5); experiment: Polymerase assay, DNA polymerase λ (template-dependent); type: biochemical; details: for IC50: enzymatic assay, template-dependent polymerase activity, read-out: ID50 pol λ (Pol); for residual polymerase activities: fix concentration of 100 µM, pol λ; for pol λ (Pol) Residual activity (%) Mg2+ / pol λ (Pol) Residual activity (%) Mn2+: after treatment 100 mM
T1 construct: Recombinant full-length human DNA polymerase λ and β were generated and purified as described; made in house
T1 sequence (Q9UGP5 1-575): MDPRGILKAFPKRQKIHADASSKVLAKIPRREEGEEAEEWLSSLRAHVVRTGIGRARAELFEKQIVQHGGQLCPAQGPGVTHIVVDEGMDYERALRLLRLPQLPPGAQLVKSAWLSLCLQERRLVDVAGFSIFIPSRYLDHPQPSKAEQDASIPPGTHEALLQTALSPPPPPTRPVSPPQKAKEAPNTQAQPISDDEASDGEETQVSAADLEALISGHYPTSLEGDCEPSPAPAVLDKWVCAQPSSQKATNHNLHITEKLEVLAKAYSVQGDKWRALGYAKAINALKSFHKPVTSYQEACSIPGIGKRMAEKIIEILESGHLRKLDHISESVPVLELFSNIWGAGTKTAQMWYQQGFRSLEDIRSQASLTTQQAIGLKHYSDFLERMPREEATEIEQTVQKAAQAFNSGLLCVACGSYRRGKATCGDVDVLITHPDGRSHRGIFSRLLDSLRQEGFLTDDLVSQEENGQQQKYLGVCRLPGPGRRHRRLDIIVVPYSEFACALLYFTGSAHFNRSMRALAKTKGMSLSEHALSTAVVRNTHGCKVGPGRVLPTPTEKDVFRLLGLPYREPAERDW
Procedure: (§1) Recombinant full-length human DNA polymerase λ and β were generated and purified as described. After purification, the protein was >90% homogeneous, as judged by sodium dodecyl sulphate (SDS)−polyacrylamide gel electrophoresis (PAGE) and Coomassie staining. TdT was from Trevigen (Gaithersburg, MD).
(§2) Polymerase Assay: Activity of DNA polymerase λ and β were assessed using poly(dA)/oligo(dT)10:1 substrate in a final volume of 25 μL containing 50 mM Tris-HCl (pH 7.0), 0.25 mg/mL BSA, 1 mM, DTT, 0.2 μM poly(dA)/oligo(dT)10:1 (3′-OH ends), 50 nM DNA polymerase λ or β, 5 μM [3H]-2′-deoxythymidine 5′-triphosphate (dTTP) (5 Ci/mmol), and 0.5 mM MnCl2 or 5 mM MgCl2 used as cofactors. The polymerase activity was monitored in the presence of 10% DMSO or in the presence of increasing amounts of inhibitors dissolved in DMSO. All reactions were incubated for 15 min at 37 °C and the DNA precipitated with 10% trichloroacetic acid. Insoluble radioactive material was determined by scintillation counting using Trilux beta-counter (PerkinElmer) as described.
(§3) Dose − response curves were generated by computer fitting of the data to the equation E(%) = Emax/(1 + I/ID50) where E(%) is the fraction of enzyme’s activity measured in the presence of the inhibitor, Emax is the activity in the absence of the inhibitor, I is the inhibitor concentration, and ID50 is the inhibitor concentration at which E(%) = 0.5 Emax. ID50 values were generated using GraphPad Prism 6.

human TdT = molecular target: T2, human TdT (Homo sapiens, UniProt P04053); experiment: Terminal transferase assay, TdT; type: biochemical; details: human TdT
T2 construct: purchased Trevigen (Gaithersburg, MD)
Procedure: as §1
(§4) Terminal Transferase Assay. DNA polymerase λ and TdT terminal transferase activities were assayed in a final volume of 25 μL containing 50 mM Tris-HCl (pH 7.0), 0.25 mg/mL BSA, 1 mM DTT, 0.2 μM ss 30mer (AAC)10 DNA oligonucleotide, 25 μM [3H]dNTPs (10 Ci/mmol) and 0.5 mM MnCl2 or 5 mM MgCl2 used as cofactors. Terminal transferase activity was monitored in the presence of 10% DMSO or in the presence of increasing amounts of inhibitors dissolved in DMSO. All reactions were incubated for 10 min at 37 °C and the DNA precipitated with 10% trichloroacetic acid. Insoluble radioactive material was determined by scintillation counting using Trilux beta-counter (PerkinElmer) as described.
as §3

human DNA polymerase β [2] = molecular target: T3, human DNA polymerase β (Homo sapiens, UniProt P06746); experiment: Polymerase assay, DNA polymerase β; type: biochemical; details: for IC50: enzymatic assay, read-out: ID50 pol β; for residual polymerase activities: fix concentration of 100 µM, pol β; for pol β Residual activity (%) Mg2+ / pol β Residual activity (%) Mn2+: after treatment 100 mM
T3 construct: Recombinant full-length human DNA polymerase λ and β were generated and purified as described; made in house
Procedure: as §1, §2, §3

human DNA polymerase λ [3] = molecular target: T1, human DNA polymerase λ; experiment: Terminal transferase assay, DNA polymerase λ (TdT-like activity); type: biochemical; details: for IC50: enzymatic assay, TdT-like activity of pol λ, read-out: ID50 pol λ (TdT)
Procedure: as §1, §4, §3

[4] = system: leukaemia cells overexpressing TdT; design: method as in PMID 22390204; details: read-out: cytotoxicity activity IC50; cited from earlier work
human DNA polymerase λ [5] = molecular target: T1, human DNA polymerase λ; design: method as in PMID 19329428; details: enzymatic assay; cited from earlier work
human DNA polymerase β [6] = molecular target: T3, human DNA polymerase β; design: method as in PMID 19329428; details: enzymatic assay; cited from earlier work
human DNA polymerase λ [7] = molecular target: T1, human DNA polymerase λ; design: method as in PMID 19329428; details: enzymatic assay; cited from earlier work; remark: listed apart in the source
[8] = Mg2+ as cofactor, read-out: ID50 (µM) Mg2+
[9] = Mn2+ as cofactor, read-out: ID50 (µM) Mn2+

T2 sequence (P04053 whole entry): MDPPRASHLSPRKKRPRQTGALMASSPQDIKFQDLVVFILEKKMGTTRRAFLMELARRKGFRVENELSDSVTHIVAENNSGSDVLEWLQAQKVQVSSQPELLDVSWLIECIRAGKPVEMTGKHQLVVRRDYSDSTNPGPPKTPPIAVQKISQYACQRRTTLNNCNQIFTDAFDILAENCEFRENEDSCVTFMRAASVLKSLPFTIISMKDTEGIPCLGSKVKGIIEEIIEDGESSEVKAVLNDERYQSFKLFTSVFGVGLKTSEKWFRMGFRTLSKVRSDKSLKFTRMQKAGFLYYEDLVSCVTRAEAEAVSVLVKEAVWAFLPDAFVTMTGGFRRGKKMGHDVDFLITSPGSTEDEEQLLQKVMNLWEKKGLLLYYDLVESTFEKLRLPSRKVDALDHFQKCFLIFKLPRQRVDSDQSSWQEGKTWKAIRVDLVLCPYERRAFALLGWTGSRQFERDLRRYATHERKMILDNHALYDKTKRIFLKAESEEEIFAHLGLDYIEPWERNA

| Compound | IC50 (human DNA polymerase λ [1]) [µM] | residual polymerase activities (human DNA polymerase λ [1]) | IC50 (human TdT; [8]) [µM] | IC50 (human TdT; [9]) [µM] | IC50 (human DNA polymerase β [2]) [µM] | residual polymerase activities (human DNA polymerase β [2]) | IC50 (human DNA polymerase λ [3]) [µM] | ID50 pol λ (Pol) (human DNA polymerase λ [5]) [µM] | ID50 pol β (human DNA polymerase β [6]) [µM] | ID50 pol λ (TdT) (human DNA polymerase λ [7]) [µM] | other results |
| --- | --- | --- | --- | --- | --- | --- | --- | --- | --- | --- | --- |
| CCOC(=O)/C(O)=C/C(=O)/C=C/c1cc(C(=O)c2ccccc2)cn1Cc1ccc(Cl)cc1 [Compound 5h] | 4.08 ± 0.4 | less than 10% | 17.51 ± 0.12 | > 50 | 12.4 ± 0.3 | less than 10% | > 100 | – | – | – | – |
| O=C(/C=C(\O)C(=O)O)/C=C/c1cc(C(=O)c2ccccc2)cn1Cc1ccc(Cl)cc1 [Compound 6h] | 4.06 ± 0.2 | less than 10% | 5.1 ± 0.12 | – | 20 ± 0.4 | less than 10% | > 100 | – | – | – | – |
| C#Cc1cn([C@H]2C[C@H](O)[C@@H](COP(=O)(O)OP(=O)(O)OP(=O)(O)O)O2)c2ccc([N+](=O)[O-])cc12 [3-eth-5-NITP, 3-ethynyl-5-nitroindolyl-2′-deoxynucleoside triphosphate] | – | – | – | – | – | – | – | – | – | – | IC50 [4]: 3.9 µM |
| COc1ccc(Cn2cc(C(=O)c3ccccc3)cc2/C=C/C(=O)/C=C(\O)C(=O)O)cc1 [Compound 6i] | 4.06 ± 0.1 | less than 10% | 2.7 ± 0.32 | > 50 | 14.7 ± 0.8 | less than 10% | > 100 | – | – | – | – |
| O=C(/C=C(\O)C(=O)O)/C=C/c1cc(C(=O)c2cccc(F)c2)c[nH]1 [Compound 3] | – | – | – | 0.78 ± 0.04 | – | – | – | > 40 | > 40 | 35 ± 1 | – |
| O=C(/C=C(\O)C(=O)O)/C=C/c1cc(C(=O)c2ccc(F)cc2)c[nH]1 [Compound 4] | – | – | – | 0.58 ± 0.03 | – | – | – | > 40 | > 40 | 40 ± 1 | – |
| O=C(/C=C(\O)C(=O)O)/C=C/c1cc(C(=O)c2ccccc2)cn1Cc1ccccc1 [Compound 1] | – | – | – | 16 ± 0.5 | – | – | – | > 40 | > 40 | 20 ± 1 | – |
| O=C(/C=C(\O)C(=O)O)/C=C/c1cc(C(=O)c2ccccc2)cn1Cc1ccc(F)cc1 [Compound 2] | – | – | – | 9.5 ± 0.1 | – | – | – | > 40 | > 40 | > 40 | – |
| 4-(1-(4-fluorobenzyl)-4-phenyl-1H-pyrrol-3-yl)-2,4-dioxobutanoic acid [Compound 12b] | – | – | – | 10.10 | – | – | – | – | – | – | pol λ (Pol) Residual activity (%) Mg2+ (human DNA polymerase λ [1]): 74.0%; pol λ (Pol) Residual activity (%) Mn2+ (human DNA polymerase λ [1]): 79.0%; ID50 (µM) Mn2+ (human TdT; Mn2+ as cofactor): 10.10 ± 4.1 µM; pol β Residual activity (%) Mg2+ (human DNA polymerase β [2]): 51.7%; pol β Residual activity (%) Mn2+ (human DNA polymerase β [2]): 82.5%; pol λ (TdT) Residual activity (%) Mn2+ (human DNA polymerase λ [3]; after treatment 100 mM, Mn2+): 100% |
| Ethyl 4-(1-(4-fluorobenzyl)-4-phenyl-1H-pyrrol-3-yl)-2,4-dioxobutanoate [Compound 11b] | – | – | – | >50 | – | – | – | – | – | – | pol λ (Pol) Residual activity (%) Mg2+ (human DNA polymerase λ [1]): 70.0%; pol λ (Pol) Residual activity (%) Mn2+ (human DNA polymerase λ [1]): 94.0%; pol β Residual activity (%) Mg2+ (human DNA polymerase β [2]): 60.5%; pol β Residual activity (%) Mn2+ (human DNA polymerase β [2]): 88% |
| CCOC(=O)/C(O)=C/C(=O)/C=C/c1cc(C(=O)c2ccccc2)cn1Cc1ccc(OC)cc1 [Compound 5i] | 4.07 ± 0.3 | less than 10% | 10.5 ± 0.2 | > 50 | 7.94 ± 0.1 | less than 10% | > 100 | – | – | – | – |
